Patent publication US9458141B2, “Low molecular weight thyroid stimulating hormone receptor (TSHR) agonists” (The United States of America, as represented by the …, priority 2008, dated 2016)
Read-outs that look alike come from different tables or passages of the source.

Molecular target: T1, human TSHR (Homo sapiens, UniProt P16473)
T1 construct: expressed in transfected cells
Experiment: Homogeneous Time Resolved Fluorescence (HTRF) cAMP assay, TSHR cell line
Type: cell-based
Conditions: for AC50: TSHR cell line, 30 minute incubation; for Emax: read-out: Maximum Activity compared to TSH, 100% activity = response of 30 mU/ml TSH, 0% = DMSO control; for Maximum Activity compared to TSH: 100% activity = response of 30 mU/ml TSH, 0% = DMSO control, in %; call rule not given here

T1 sequence (P16473 21-764): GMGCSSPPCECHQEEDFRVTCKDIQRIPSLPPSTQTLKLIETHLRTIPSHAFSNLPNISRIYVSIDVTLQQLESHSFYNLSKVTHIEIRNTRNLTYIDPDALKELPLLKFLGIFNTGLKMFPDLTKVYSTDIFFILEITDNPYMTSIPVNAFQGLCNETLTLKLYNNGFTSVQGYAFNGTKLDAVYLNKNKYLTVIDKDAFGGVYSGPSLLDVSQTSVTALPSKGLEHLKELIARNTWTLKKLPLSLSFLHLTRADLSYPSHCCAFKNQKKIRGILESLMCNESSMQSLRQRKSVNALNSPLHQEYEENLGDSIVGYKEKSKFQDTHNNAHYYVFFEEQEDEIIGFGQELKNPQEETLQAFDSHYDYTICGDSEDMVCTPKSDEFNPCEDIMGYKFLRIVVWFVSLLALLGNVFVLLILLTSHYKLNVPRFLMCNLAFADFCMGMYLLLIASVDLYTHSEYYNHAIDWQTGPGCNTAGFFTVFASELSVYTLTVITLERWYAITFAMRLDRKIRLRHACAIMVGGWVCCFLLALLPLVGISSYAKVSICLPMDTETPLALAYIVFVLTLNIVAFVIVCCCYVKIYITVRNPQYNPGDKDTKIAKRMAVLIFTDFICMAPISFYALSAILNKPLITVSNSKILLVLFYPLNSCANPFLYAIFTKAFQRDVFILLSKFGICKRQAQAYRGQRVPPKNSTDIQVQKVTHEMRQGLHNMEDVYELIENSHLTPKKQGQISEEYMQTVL

| Compound | AC50 (HTRF cAMP) | AC50 (HTRF cAMP, read-out: AC50) [µM] | Maximum Activity compared to TSH | also measured |
| --- | --- | --- | --- | --- |
| COc1ccc(C2Nc3ccccc3C(=O)N2Cc2ccco2)cc1COc1c(C)cccc1C (stereo not drawn) [Structure 141] | inactive | – | – | – |
| COc1ccc(-c2nc3ccccc3c(=O)n2Cc2ccccc2)cc1CNc1ccc(NC(C)=O)cc1 [Structure 173] | – | 15.8 | – | Emax: 30% |
| COc1ccc(C2Nc3ccccc3C(=O)N2CC(C)(C)C)cc1COc1ccc(NC(C)=O)cc1 (stereo not drawn) [Structure 257] | – | 20 | – | Emax: 20% |
| COc1ccc(C2Nc3ccccc3C(=O)N2Cc2ccc(C(C)(C)C)cc2)cc1COc1ccc(NC(C)=O)cc1 (stereo not drawn) [Structure 175] | inactive | – | – | – |
| COc1ccc(-c2nc3ccc(Cl)cc3c(=O)n2Cc2ccccc2)cc1COc1ccc(NC(C)=O)cc1 [Structure 181] | – | 3.98 | – | Emax: 22.5% |
| COc1ccc(C2Nc3ccccc3C(=O)N2Cc2ccccc2)cc1COc1ccc(F)cc1 (stereo not drawn) [Structure 152] | inactive | – | – | – |
| COc1ccc(C2Nc3ccccc3C(=O)N2Cc2ccccc2)cc1COc1ccc(NC(C)=O)cc1 (single isomer, unassigned) [Structure 56] | – | – | 110.90 | AC50 (AC50, HTRF cAMP): 11.2 µM |
| COc1ccc(-c2nc3ccc(NC(C)=O)cc3c(=O)n2Cc2ccccc2)cc1COc1ccc(NC(C)=O)cc1 [Structure 191] | inactive | – | – | – |
| COc1ccc(C2Nc3ccccc3C(=O)N2Cc2ccco2)cc1COc1ccc(N)cc1 (stereo not drawn) [Structure 237] | inactive | – | – | – |
| COc1ccc(C2Nc3ccccc3C(=O)N2Cc2ccc(CNC(=O)CO)cc2)cc1COc1ccc(NC(C)=O)cc1 (stereo not drawn) [Structure 128] | – | 39.8 | 69.13 | – |
| CC(=O)Nc1ccc(OCc2cccc(-c3nc4ccccc4c(=O)n3Cc3ccco3)c2)cc1 [Structure 159] | inactive | – | – | – |
| COc1ccc(C2Nc3ccccc3C(=O)N2Cc2ccc(CNC(=O)CO)cc2)cc1COc1ccc(NC(C)=O)cc1 (stereo not drawn) [Structure 107] | – | 31.6 | – | Emax: 63.7% |
| COc1ccc(C2Oc3ccccc3C(=O)N2Cc2ccccc2)cc1COc1ccc(NC(C)=O)cc1 (stereo not drawn) [Structure 35] | – | 12.6 | 115.01 | – |
| COc1ccc(C2Nc3ccccc3C(=O)N2Cc2ccco2)cc1COc1c(C)cccc1C (stereo not drawn) [Structure 162] | inactive | – | – | – |
| COc1ccc(CN(Cc2ccccc2)[S+](=O)([O-])c2ccccc2)cc1COc1ccc(NC(C)=O)cc1 [Structure 223] | inactive | – | – | – |
| COc1ccc(C2Nc3ccccc3C(=O)N2Cc2ccc(C(F)(F)F)cc2)cc1COc1ccc(NC(C)=O)cc1 (stereo not drawn) [Structure 234] | – | 8.91 | 18.00 | – |
| COc1ccc(C2Nc3ccc(NC(=O)COC(C)=O)cc3C(=O)N2Cc2ccccc2)cc1COc1ccc(NC(C)=O)cc1 (stereo not drawn) [Structure 66] | – | 8.91 | 64.52 | – |
| COc1ccc(C=O)cc1COc1ccc(NC(C)=O)cc1 [Structure 184] | inactive | – | – | – |
| COc1ccc(C2Nc3ccccc3C(=O)N2Cc2ccccc2Cl)cc1COc1ccc(NC(C)=O)cc1 (stereo not drawn) [Structure 231] | – | 3.55 | – | Emax: 16% |
| O=C1CC(c2ccco2)CC2=C1C(c1cccnc1)n1nc(C(F)(F)F)nc1N2 (stereo not drawn) [Structure 147] | inactive | – | – | – |
| COc1ccc(C(=O)N(Cc2cccs2)Cc2cccs2)c(O)c1 [Structure 103] | – | 15.8 | 106.72 | – |

| Compound | AC50 (HTRF cAMP) | AC50 (HTRF cAMP, read-out: AC50) [µM] | Maximum Activity compared to TSH | also measured |
| --- | --- | --- | --- | --- |
| COc1ccc(C2Nc3ccccc3C(=O)N2Cc2ccco2)cc1COc1ccc([N+](=O)[O-])cc1 (stereo not drawn) [Structure 290] | inactive | – | – | – |
| COc1ccc(CN(Cc2ccccc2)C(=O)c2ccccc2O)cc1 [Structure 271] | inactive | – | – | – |
| COc1ccc(C2Nc3ccccc3C(=O)N2Cc2ccc(-c3ccccc3)cc2)cc1COc1ccc(NC(C)=O)cc1 (stereo not drawn) [Structure 242] | inactive | – | – | – |
| COc1ccc(C(=O)N(Cc2ccccc2)Cc2ccc(OC)c(COc3ccc(NC(C)=O)cc3)c2)cc1 [Structure 15] | – | 12.6 | – | Emax: 123% |
| CC(=O)Nc1ccc(OCc2cccc(C3Nc4ccccc4C(=O)N3Cc3ccco3)c2)cc1 (stereo not drawn) [Structure 144] | inactive | – | – | – |
| COc1ccc(-c2nc3ccccc3c(=O)n2Cc2ccc(CNC(=O)CO)cc2)cc1COc1ccc(NC(C)=O)cc1 [Structure 126] | – | 17.8 | 36.00 | – |
| COc1ccc(C(=O)N(Cc2ccco2)Cc2cccs2)c(O)c1 [Structure 112] | – | 15.8 | 60.92 | – |
| COc1ccc(C2Nc3ccccc3C(=O)N2CCc2ccc(Cl)cc2Cl)cc1COc1ccc(NC(C)=O)cc1 (stereo not drawn) [Structure 224] | inactive | – | – | – |
| COc1ccc(C2Nc3ccccc3C(=O)N2Cc2ccco2)cc1COc1c(C)cccc1C (stereo not drawn) [Structure 182] | inactive | – | – | – |
| COc1ccc(C2Nc3ccccc3C(=O)N2Cc2ccco2)cc1COc1ccccc1 (stereo not drawn) [Structure 266] | inactive | – | – | – |
| COc1ccc(C2Nc3ccccc3C(=O)N2Cc2ccccc2)cc1COc1cccc(C(F)(F)F)c1 (stereo not drawn) [Structure 208] | inactive | – | – | – |
| COc1ccc(C2Nc3ccccc3C(=O)N2Cc2ccccn2)cc1COc1ccc(NC(C)=O)cc1 (stereo not drawn) [Structure 115] | – | 39.8 | 66.81 | – |
| COc1ccc(C2Nc3ccccc3C(=O)N2Cc2ccco2)cc1COc1ccc([N+](=O)[O-])cc1 (stereo not drawn) [Structure 245] | inactive | – | – | – |
| COc1ccc(-c2nc3ccccc3c(=O)n2Cc2ccccc2)cc1COc1ccc(NC(C)=O)cc1 [Structure 97] | – | 15.8 | 132.18 | – |
| COc1ccc([C@H]2[C@H](c3ccccc3)C(=O)N2Cc2ccccc2)cc1COc1ccc(NC(C)=O)cc1 [Structure 85] | – | – | 54.95 | – |
| COc1ccc(C2Cc3ccccc3C(=O)N2Cc2ccco2)cc1COc1ccc(NC(C)=O)cc1 (stereo not drawn) [Structure 29] | – | 17.8 | – | Emax: 139% |
| COc1ccc(C(=O)N(Cc2cccs2)Cc2cccs2)c(O)c1 [Structure 108] | – | 15.8 | 63.12 | – |
| COc1ccc(C2Nc3ccc(Cl)cc3C(=O)N2Cc2ccccc2)cc1COc1ccc(NC(C)=O)cc1 (stereo not drawn) [Structure 123] | – | 14.1 | 83.18 | – |
| COc1ccc(C2Nc3ccccc3C(=O)N2CCc2ccccc2)cc1COc1ccc(NC(C)=O)cc1 (stereo not drawn) [Structure 67] | – | 7.94 | 82.36 | – |
| COc1ccc(C2NC(=O)c3ccccc3N2)cc1COc1ccc(NC(C)=O)cc1 (stereo not drawn) [Structure 233] | inactive | – | – | – |
| COc1ccc(C2Nc3ccccc3C(=O)N2Cc2ccccc2)cc1COc1ccc(C)cc1 (stereo not drawn) [Structure 196] | inactive | – | – | – |

| Compound | AC50 (HTRF cAMP) | AC50 (HTRF cAMP, read-out: AC50) [µM] | Maximum Activity compared to TSH | also measured |
| --- | --- | --- | --- | --- |
| COc1ccc(C2Oc3ccc(NC(C)=O)cc3C(=O)N2Cc2cccc(Cl)c2)cc1COc1ccc(NC(C)=O)cc1 (stereo not drawn) [Structure 83] | – | 7.08 | – | Emax: 79% |
| COc1ccc(C2Nc3ccccc3C(=O)N2Cc2ccncc2)cc1COc1ccc(NC(C)=O)cc1 (stereo not drawn) [Structure 132] | – | 31.6 | 44.00 | – |
| COc1ccc(C2Nc3ccccc3C(=O)N2Cc2ccccc2)cc1COc1cccc(C)c1 (stereo not drawn) [Structure 127] | – | 14.1 | – | Emax: 38% |
| COc1cccc(CN2C(=O)c3ccccc3NC2c2ccc(OC)c(COc3ccc(NC(C)=O)cc3)c2)c1 (stereo not drawn) [Structure 18] | – | 6.31 | 215.89 | – |
| COc1ccc(C2Nc3ccccc3C(=O)N2Cc2ccco2)cc1COc1ccc(NC(C)=O)cc1 (stereo not drawn) [Structure 6] | – | 17.8 | 180.81 | – |
| COc1ccc(C(=O)O)cc1COc1ccc(NC(C)=O)cc1 [Structure 202] | inactive | – | – | – |
| COc1ccc(C2Nc3ccccc3C(=O)N2Cc2ccccc2C)cc1COc1ccc(NC(C)=O)cc1 (stereo not drawn) [Structure 281] | – | 5.62 | 22.00 | – |
| CC(C)c1ccc(C2C3=C(CC(c4ccco4)CC3=O)Nc3nc(C(F)(F)F)nn32)cc1 (stereo not drawn) [Structure 143] | inactive | – | – | – |
| COc1ccc(C2Nc3ccccc3C(=O)N2Cc2ccco2)cc1COc1ccc(NC(C)=O)cc1 (stereo not drawn) [Structure 34] | – | 15.8 | 122.30 | – |
| COc1ccc(C2Nc3ccccc3C(=O)N2Cc2ccco2)cc1COc1ccc(NC(C)=O)cc1 (stereo not drawn) [Structure 1] | – | 12.6 | 159.24 | – |
| COc1ccc(C2Nc3ccccc3C(=O)N2Cc2ccccc2)cc1COc1ccc(NC(C)=O)cc1 (stereo not drawn) [Structure 227] | inactive | – | – | – |
| COc1ccc(C2Nc3ccccc3C(=O)N2CC(C)(C)C)cc1COc1ccc(NC(C)=O)cc1 (stereo not drawn) [Structure 276] | – | 25.1 | 32.00 | – |
| COc1ccc(C2NC(=O)c3ccccc3N2)cc1COc1ccc(NC(C)=O)cc1 (stereo not drawn) [Structure 137] | inactive | – | – | – |
| COc1ccc(OCc2cc(C3Nc4ccccc4C(=O)N3Cc3ccccc3)ccc2OC)cc1 (stereo not drawn) [Structure 256] | – | 5.01 | 24.00 | – |
| O=C(c1ccccc1O)N(Cc1ccccc1)Cc1cccs1 [Structure 287] | – | 22.4 | 30.00 | – |
| COc1ccc(C2Nc3ccccc3C(=O)N2Cc2ccccc2OC)cc1COc1ccc(NC(C)=O)cc1 (stereo not drawn) [Structure 198] | – | 20 | – | Emax: 18% |
| COc1ccc(CNc2ccccc2C(=O)NCc2ccccc2)cc1COc1ccc(NC(C)=O)cc1 [Structure 134] | – | 8.91 | 30.50 | – |
| COc1ccc(C2Nc3ccccc3C(=O)N2Cc2ccco2)cc1COc1ccc(NC(C)=O)cc1 (stereo not drawn) [Structure 19] | – | 15.8 | 142.18 | – |
| COc1cccc(CN2C(=O)c3ccccc3NC2c2ccc(OC)c(COc3ccc(NC(C)=O)cc3)c2)c1 (stereo not drawn) [Structure 46] | – | 7.94 | 182.52 | – |
| COc1ccc(CN(Cc2ccccc2)C(=O)c2ccccc2)cc1COc1ccc(NC(C)=O)cc1 [Structure 40] | – | 11.2 | 128.80 | – |
| COc1ccc(C2Nc3ccccc3C(=O)N2Cc2ccco2)cc1COc1cccc(NC(C)=O)c1 (stereo not drawn) [Structure 151] | inactive | – | – | – |
